# Test results from US10815275B2, “Antimicrobial peptoids with improved selectivity and use thereof” (priority 2018, dated 2020).
# Non-standard residues stand in square brackets, D forms with d. Residues, ends and D or L forms follow the SMILES beside them. Nspe = C[C@H](NCC(=O)O)c1ccccc1; Nlys = NCCCCNCC(=O)O
# Columns and labels:
# [1] = Metabolic stability in human liver S9 fraction, HPLC; assay type: in vitro ADME; conditions: 37° C., after 24 hours
# Method: In order to identify metabolic stability of the peptoids synthesized in Preparation Example 1, such peptoids were subjected to enzymatic reaction using S9 fraction which is a mixture of human liver tissue-extracted metabolic enzymes. Thereafter, for the reaction products, metabolites were quantitated using HPLC.
# Specifically, Peptoid NOS. 1 and 4, and Pexiganan as a peptide control (40 μL each, 100 μM) were treated with […], 3.3 mM MgCl2, and 1.3 mM NADPH buffer (306 μL, pH=7.4), to prepare respective samples. The respective samples were treated with S9 fraction (2 μL, 0.1 mg/mL) and then incubated at a temperature of 37° C. When 0, 1, 4, and 24 hours had elapsed after treatment with the S9 fraction, 40 μL of each sample was taken out, and acetonitrile containing the same amount of 0.1% trifluoroacetic acid was used to stop activity of enzymes contained in the S9 fraction. Thereafter, proteins precipitated with acetonitrile were centrifuged at a condition of 1,000×g for 10 minutes at a temperature of 4° C. Then, supernatant was analyzed by HPLC to identify an amount of the remaining peptoid which had not been degraded by the enzymes in the S9 fraction.
# E. coli strain ATCC25922 = assay type: cell-based; conditions: strain ATCC25922
# How it was run: (§1)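 Broth microdilution in cation-adjusted Mueller Hinton Broth used 2×10^5 CFU/mL in medium with 0.2% BSA and 0.01% acetic acid. Peptoids were 2-fold serially diluted, and plates were incubated 18 hours at 37° C. with absorbance read at 600 nm. MIC was the lowest concentration completely suppressing growth, averaged over three independent experiments; MBC was also determined.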
# [2] = test system: S. aureus strain KCTC1621; assay type: cell-based; conditions: strain KCTC1621
# How it was run: as §1
compound,measurement,setting,value
C[C@@H](c1ccccc1)N(CC(N)=O)C(=O)CN(C(=O)CN(CCCCN)C(=O)CN(C(=O)CN(C(=O)CN(CCCCN)C(=O)CN(C(=O)CN(C(=O)CN(CCCCN)C(=O)CN(C(=O)CN(C(=O)CNCCCCN)[C@@H](C)c1ccccc1)[C@@H](C)c1ccccc1)[C@@H](C)c1ccccc1)[C@@H](C)c1ccccc1)[C@@H](C)c1ccccc1)[C@@H](C)c1ccccc1)[C@@H](C)c1ccccc1 [compound 1] (H-[Nlys][Nspe][Nspe][Nlys][Nspe][Nspe][Nlys][Nspe][Nspe][Nlys][Nspe][Nspe]-NH2),remaining amount after S9 fraction treatment,"[1]; human liver S9 fraction, 1440 min",about 64%
same,"remaining at 24 h, 11.5 μM","[1]; human, s9, pH 7.4, human liver S9 fraction, read-out: remaining amount after S9 fraction treatment",≥ 60%
same,MBC E. coli,E. coli strain ATCC25922,3.1 µM
same,MBC S. aureus,[2],1.6 µM
